This is an account of results in article PMC11478334, “Quaternized Curcumin Derivative—Synthesis, Physicochemical Characteristics, and Photocytotoxicity, Including Antibacterial Activity after Irradiation with Blue Light” (Molecules, 2024).

What all share (format): physicochemical
Data set [1] can be described thus: UV-vis absorption spectra (spectral properties). From the text:
In the UV–vis spectra of the studied curcumin derivatives 2 and 3, typical absorption bands in the 350–550 nm range were noted (Figure 7). The absorption maxima of 2 and its quaternized derivative 3 were located close to 500 nm in both DMSO and DMF (for 2, λmax 496 nm in DMF and 502 nm in DMSO; for 3, λmax 489 nm in DMF and 495 nm in DMSO), whereas for the unsubstituted curcumin, the absorption maximum was located at 430 nm in DMF and 436 nm in DMSO. This implies that the presence of the BF2 moiety induces a strong bathochromic shift, as reported before. Further conversion of non-ionic 2-(morpholin-4-yl)ethoxy substituents present in 2 into quaternary ammonium cations present in 3 2-(N-methylmorpholinium)ethoxy groups induced a slight […] hypsochromic shift in both solvents. The strong absorption band originates mainly from π-π* electronic transition. To a lesser extent, such peaks come from the n-π* transition, although the importance of this crossing remains unclear.

Data set [2] can be described thus: Photodecomposition quantum yields (photostability under visible light). The conditions noted are these: for 10^−5 Φp (photodecomposition quantum yield): visible light over 450 nm; for ΦP (photodecomposition quantum yield) / calculated photodecomposition quantum yields, level: visible light λ ≥ 450 nm; for calculated photodecomposition quantum yields, level: solvent not stated. From the text: The absorption spectra of the studied curcumin derivatives 2 and 3 were monitored during the irradiation and compared with curcumin and zinc(II) phthalocyanine (ZnPc) as references (Figure 8). Under visible light irradiation (λ ≥ 450 nm), curcumin derivatives 2 and 3 only slightly decomposed. The calculated quantum yields were at the level of […]. […] Considering the obtained results, the morpholinoethyl and BF2 moieties tend to stabilize the curcumin core and prevent its photodecomposition. Partial reduction in light absorption (expressed by ε values) has also been noted for other photosensitizers subjected to the quaternization when 2-(morpholin-4-yl)ethoxy substituents were transformed into 2-(N-methylmorpholinium)ethoxy ones.
The photostability measurements were conducted in DMSO and DMF at ambient temperature under aerobic conditions according to the previously described method. A 150 W xenon lamp (Optel, Opole, Poland) was utilized as a light source. In order to separate the visible light (>450 nm), the HCC-16 cutting filter was used. The spectral changes under the irradiation were recorded with an OceanOptics Flame spectrophotometer equipped with a DT-MINI-2-GS light source (OceanOptics, Dunedin, FL, USA). The photodegradation quantum yields were then calculated using the previously presented equation [39, 73, 74, 76].

Data set [3] in a line: Singlet oxygen generation quantum yields, indirect method with DPBF or TTF. The method, then: Singlet oxygen generation quantum yield assessment constitutes a crucial measurement for the prospective photosensitizers applied in photodynamic therapy. For the singlet oxygen generation study, the indirect method was chosen with two different singlet oxygen quenchers—1,3-diphenylisobenzofuran (DPBF) and tetrathiafulvalene (TTF). Due to the partial overlapping of the DPBF band with the studied compounds’ bands in absorption spectra, a singlet oxygen formation assessment was also performed with TTF as a chemical singlet oxygen scavenger. The values obtained for new curcuminoids 2 and 3 were referenced to curcumin and ZnPc.
Singlet oxygen quantum yield measurements for 2, 3, and curcumin were assessed in dimethyl sulfoxide (DMSO; Fisher, Longborough, UK) and N,N-dimethylformamide (DMF; Fisher) at ambient temperature according to the comparative method protocols described previously. The method involves using chemical quenchers of singlet oxygen, 1,3-diphenylisobenzofuran (DPBF; Merck, Steinheim, Germany), tetrathiafulvalene (TTF; Aldrich, Steinheim, Germany), and an unsubstituted zinc(II) phthalocyanine (ZnPc; Aldrich) as a reference compound. The mixtures of curcumins and DPBF or TTF were irradiated with light adjusted to the maximum absorbance wavelength through the M250 monochromator (Optel, Opole, Poland). The changes in spectra under the irradiation were recorded with an OceanOptics Flame spectrophotometer equipped with a DT-MINI-2-GS light source. The singlet oxygen quantum yields were calculated using the previously presented equation [39, 73, 74, 75].

Turning to `F[B-]1(F)OC(/C=C/c2ccc(OCCN3CCOCC3)cc2)=CC(/C=C/c2ccc(OCCN3CCOCC3)cc2)=[O+]1` [Compound 2], the results for the “absorption maximum λmax” value in data set [1] (in DMF) and in data set [1] (in DMSO) were 496 nm and 502 nm, respectively. In addition, the “10^−5 Φp (photodecomposition quantum yield)” value in data set [2] (DMF) is 2.90 10^−5; in data set [2] (DMSO), 5.41 10^−5. Also, the “ΦP (photodecomposition quantum yield)” value in data set [2] (DMF) is reported as 2.90 × 10^−5; in data set [2] (DMSO), 5.41 × 10^−5. Moreover, in data set [2], the “calculated photodecomposition quantum yields, level” value is on record as ~10^−4. Besides, the “singlet oxygen quantum yield” value in data set [3] (DPBF quencher, DMF) is recorded as below 0.01; in data set [3] (DPBF quencher, DMSO), 0.024; in data set [3] (TTF quencher, DMF), below 0.01; in data set [3] (TTF quencher, DMSO), below 0.01.
Regarding `C[N+]1(CCOc2ccc(C=CC3=CC(C=Cc4ccc(OCC[N+]5(C)CCOCC5)cc4)=[O+][B-](F)(F)O3)cc2)CCOCC1` [Compound 3], the “absorption maximum λmax” value came out at 489 nm in data set [1] (in DMF) and 495 nm in data set [1] (in DMSO). Besides, the “10^−5 Φp (photodecomposition quantum yield)” value is listed as 20.10 10^−5 in data set [2] (DMF) and 6.13 10^−5 in data set [2] (DMSO). Also, the “calculated photodecomposition quantum yields, level” value in data set [2] is listed as ~10^−4. For the same compound, the “singlet oxygen quantum yield” value was found to be 0.026 in data set [3] (DPBF quencher, DMF); 0.046 in data set [3] (DPBF quencher, DMSO); 0.084 in data set [3] (TTF quencher, DMF); 0.057 in data set [3] (TTF quencher, DMSO). The “singlet oxygen generation ΦΔ, reaching up to” value in data set [3] (TTF used, solvent not stated) is at most 0.1.
Consider Curcumin [reference compound], for which the “absorption maximum λmax” value in data set [1] (in DMF) is listed as 430 nm; in data set [1] (in DMSO), 436 nm. The “10^−5 Φp (photodecomposition quantum yield)” value is listed as 9.99 10^−5 in data set [2] (DMF) and 8.31 10^−5 in data set [2] (DMSO). The “singlet oxygen quantum yield” value in data set [3] (TTF quencher, DMF) was found to be 0.098; in data set [3] (TTF quencher, DMSO), 0.116. Also, the “singlet oxygen generation ΦΔ, estimated” value in data set [3] (natural curcumin, solvent not stated) is on record as 0.04–0.1.
